The source made the active and inactive calls. Cut-off read from the data, not from the text of the source: active = inhibition of 80% or more and inactive = less.
System: Naegleria gruberi
Test: microbe, parasite or virus in culture
Format: functional
Details: NEG-M, CONC 10 uM
Description: Growth inhibiting activity of Naegleria gruberi in vitro

| Compound | inhibition at 10 µM |
| --- | --- |
| Cc1c[nH]c(CCNC(=O)c2cc(-c3ccc(Cl)cc3)cs2)n1 | 38.3% (not active) |
| c1ccc(Oc2ccc(-c3cc(N4CCOCC4)[nH]n3)cc2)cc1 | 22.4% (not active) |
| Nc1ncnc2[nH]nc(Cc3cccc4ccccc34)c12 | 24% (not active) |
| CC1=NN(c2nc3ccccc3s2)C(=O)C1Cc1cccc2ccccc12 (stereo not given) | 57.2% (not active) |
| c1ccc2c(c1)CN(CC1CC1)CC1(CCN(Cc3c[nH]c4cnccc34)CC1)O2 | 4.4% (not active) |
| Cc1cc(C)nc(-n2nc(C)cc2Nc2ccccc2)n1 | 31.5% (not active) |
| O=C(Nc1ccc2c(c1)B(O)OC2)c1ccccc1C(F)(F)F | 89.8% (active) |
| Cc1ccccc1C(=O)N1N=C(Nc2ccccc2)SC1(C)C | 12.6% (not active) |
| Cc1cc2nc(NC(=O)C(C)(C)C)nc(Cl)c2n1Cc1ccc(Cl)cc1 | 43% (not active) |
| CC1CC1C(=O)NC1CCN(CC2(c3ccccc3)CCCCC2)CC1 (stereo not given) | 43.8% (not active) |
| CCN(CC)S(=O)(=O)c1ccc(Cl)c(C(=O)Nc2ccc3nc(C)sc3c2)c1 | 84.7% (active) |
| CCC(NC(=O)c1ccccc1NC(=O)c1ccc(C)cc1)C(=O)OC (stereo not given) | 4.8% (not active) |
| N=C(N)c1ccc(-c2cc(-c3ccccc3)on2)cc1 | 26.5% (not active) |
| COc1ccc(Nc2ccccc2NC(=O)c2ccc(O)nc2)cc1 | 24.1% (not active) |
| OCc1ccc(-c2cncc(Nc3cccc(Cl)c3)c2)cc1 | 18.8% (not active) |
| Brc1cncc(-c2cc(NCCCn3ccnc3)nc(-c3ccccc3)n2)c1 | 33.8% (not active) |
| Cc1cc(Nc2ccncc2)n2nc(C)c(-c3ccccc3Cl)c2n1 | 27.7% (not active) |

| Compound | inhibition at 10 µM |
| --- | --- |
| FC(F)(F)c1ccc(N(c2cccnc2)C2CCN(c3ccc(C(F)(F)F)cn3)CC2)cc1 | 80.4% (active) |
| NS(=O)(=O)c1cccc(-c2ccc3ncc(N4CCOCC4)nc3c2)c1 | 26% (not active) |
| Nc1c2c(nc3sc4c(c13)CCCC4)CCCC2 | 48.3% (not active) |
| CCc1c(C)nc(-n2nc(C)cc2NC(=O)c2ccccc2SC)[nH]c1=O | 17.4% (not active) |
| C[C@H](C(N)=O)N1CCCC[C@H]1c1ccc(OCc2cccc(F)c2)cc1 | 15.8% (not active) |
| O=C(Nc1ccccc1-c1nc2c(C(=O)O)cccc2o1)c1ccccc1 | 39.5% (not active) |
| CNC1C(OC2C(OC3C(O)C(O)C(N=C(N)N)C(O)C3N=C(N)N)OC(C)C2(O)C=O)OC(CO)C(O)C1O (stereo not given) | 0% (not active) |
| Cc1cc(Cl)c(S(=O)(=O)N2CCCC2)cc1OCC(=O)NC1CCCCC1 | 11% (not active) |
| CC(=O)Oc1ccccc1C(=O)Nc1ncc([N+](=O)[O-])s1 [NITAZOXANIDE] | 62.7% (not active) |
| Cc1nc(-c2ccccn2)nc(N2CCC(Cc3ccccc3)C2)c1Cl (stereo not given) | 38.3% (not active) |
| COc1ccc(-c2cncc3ccc(C(=O)NCCCn4ccnc4)nc23)cc1 | 5.8% (not active) |
| O=C(NC1CC1)c1ccc(N2CCOc3ccc(Cl)cc32)s1 | 27.6% (not active) |
| O=C(COc1cccc(F)c1)Nc1nc(-c2ccccn2)cs1 | 24.2% (not active) |
| COc1ccc(-c2nc(-c3cccc(NC(=O)Cc4ccc(F)cc4)c3)no2)cc1OC | 35.4% (not active) |
| Cc1cc(NC(=O)c2ccc(Oc3ccc(Cl)cc3O)o2)no1 | 0% (not active) |
| Cc1cccc(Cn2ccc(NC(=O)c3ccc4c(c3)OCO4)n2)c1 | 59.7% (not active) |
| CC1=Nc2ccc(Cl)cc2C(c2ccccc2)N1CCNC(=O)CN(C)C (stereo not given) | 4.7% (not active) |

System: Naegleria gruberi
Test: not given
Details: NEG-M, at 10 µM

| Compound | inhibition [%] |
| --- | --- |
| MMV688978 | 60.5 |
